Source: patent US20070244076A1, “Site and Rate Selective Prodrug Formulations of D609 with Antioxidant and Anticancer Activity” (priority 2003, published 2007)

Experiments:
[1] = tested on: Mouse splenic lymphocytes; assay: Mitogen-stimulated lymphocyte proliferation, 3H-thymidine incorporation; assay type: cell-based; conditions: 188 μM=50 μg/ml
Protocol: (§1) Studies were conducted to determine whether D609 enhances mouse splenic lymphocyte mitogenic responses and IFNγ production. Mouse splenic lymphocytes at 2.5×10^6/ml were stimulated with LPS or ConA in the presence or absence of D609. The cell proliferation was measure by 3H-thymidine incorporation after the cells were cultured with LPS (FIG. 8A) or with ConA (FIG. 8B). […] In addition, the supernatants of ConA-stimulated lymphocyte cultures were harvested at various times and measured for IFNγ production by ELISA (FIG. 8C).

lymphocytes = assay: IR-induced oxidative events in lymphocytes; assay type: cell-based; conditions: pre-incubation of lymphocytes
BALB/c mice = assay: Protection of mice from IR-induced lethality; assay type: in vivo; conditions: 50 mg/kg iv 10 min prior to 6.5 or 8.5 Gy total body IR; 30-day observation
Protocol: BALB/c mice were exposed to 6.5 or 8.5 Gy total body IR 10 minutes after they received a single dose (50 mg/kg) of iv injection of D609 or vehicle (saline) through the tail vein. The death of these mice was recorded during a 30-day observation period after IR.
Moreover, when D609 (50 mg/kg, iv) was administered to mice 10 min prior to total body

[2] = tested on: Mouse splenic lymphocytes; assay: IFNγ production of ConA-stimulated lymphocytes, ELISA; assay type: cell-based
Protocol: as §1

S=C([S-])OC1CC2CC1C1CCCC21.[K+] (stereo not shown) [Prodrug D609, Tricyclodecan-9-yl-xanthogenate]
mitogenic responses to LPS or ConA [1]: enhanced their mitogenic responses | IR-induced events (ROS production, decrease in GSH, oxidative damage to proteins and lipids, NF-κB activation) (lymphocytes): significant diminution | protection from IR-induced lethality (BALB/c mice): protected the mice from IR-induced lethality | production of interferon-γ (IFNγ) [2]: significantly augmented
